Data as given in paper PMC9325934, “Preliminary mechanistic insights of a brain-penetrant microtubule imaging PET ligand in a tau-knockout mouse model” (EJNMMI Research, 2022).
Structures can show the parent of a compound that is named as a salt.

How the values were obtained:
[1] = [11C]MPC-6827 brain microPET/CT at baseline and after EpoD treatment; type: in vivo; details: female Balb/C mice, EpoD 3.0 mg/kg intraperitoneal, 3 days acute treatment
Protocol: To validate the in vitro MT-stabilization cell uptake results, normal Balb/C mice (n = 6, 6 mo old) were treated with epothilone D (EpoD), a brain-penetrant, MT-stabilizing drug commonly used in tauopathies. [^11C]MPC-6827 brain PET/CT imaging was performed at baseline and after 3 days of acute treatment of EpoD treatment (3.0 mg/kg intraperitoneal injection). Whole-brain SUVmax was calculated and compared between the baseline and post-drug treatment scans.

[2] = system: stabilized/bound and destabilized/free tubulins of SH-SY5Y cells; experiment: Cytoskeleton kit-based tubulin assay with [11C]MPC-6827 (free vs bound tubulin fractions); type: cell-based, human; details: for decrease of [11C]MPC-6827 radioactivity in bound tubulin fractions / decrease of [11C]MPC-6827 radioactivity in free tubulin fractions / increase of [11C]MPC-6827 radioactivity in bound fractions / increase of [11C]MPC-6827 radioactivity in free tubulin fractions: 1.0 µM agent 3 h, vs untreated fractions
Protocol: To further investigate the tubulin selectivity of [^11C]MPC-6827 in SH-SY5Y cells, tubulin assay was performed using the commercially available kit-based assay (Cytoskeleton Inc, USA). Briefly, SH-SY5Y cells (7 × 10^6 cells/well) were pretreated with 1.0 µM of same MT stabilizing (EpoD, paclitaxel) and destabilizing agents (mertasine, vinblastine) for 3 h (n = 3/group). […] Samples were loaded on to ultra-centrifuge following the kit-based assay parameters to separate stabilized/bound and destabilized/free tubulins. Stabilized tubulins from low-speed centrifugation (1000×g for 5 min at 37 °C) and destabilized tubulins from high speed centrifugation (100,000×g for 20 min at 37 °C) were collected separately and their associated radioactivity was measured using a γ counter (Perkin Elmer).

SH-SY5Y cells = experiment: In vitro [11C]MPC-6827 cell uptake assay with MT stabilizing/destabilizing agents and self-blocking
Protocol: Cell-binding assays in vitro were performed in SH-SY5Y cells with [^11C]MPC-6827 following our published protocols [20, 21]. […] They (0.5 × 10^6 cells/well) were treated with 1.0 µM of (a) stabilizing agents that increase MT polymerizations (paclitaxel, EpoD) [1, 25] or destabilizing agents increasing free tubulin content (vinblastine, mertasine) [26, 27] and 3 h later, [^11C]MPC-6827 (0.074 MBq/well) was added and incubated for 30 min at RT (n = 6/group). […] All the cells were washed with PBS and lysed with 1 N NaOH. Finally, the lysate from each well was γ-counted (PerkinElmer, Waltham, MA, USA) and counts-per-minute (cpm) values were normalized to the amount of radioactivity added to each well. Protein concentration was estimated in a subgroup of cells (n = 3) using the established Pierce BCA Protein Assay Kit from ThermoFisher [28, 29]. Cpm values were then matched to protein concentration per well, and the data expressed as %ID/mg of protein in each well.

[3] = set-up: method as in earlier work; details: mice, rats, and dogs; cited from earlier work
[4] = In vitro autoradiography of [11C]MPC-6827 on brain sections; type: binding, mice
Protocol: Autoradiography studies in vitro were performed on postmortem frozen brain sections from tau KO and control mice (n = 6/group) following published protocols. Briefly, the sagittal sections were mount on a glass slides (Super frost plus slides, Fisher Scientific, Waltham, MA), air-dried for 30 min and incubated in PBS (pH 7.4) for 10 min to remove any endogenous binding. Additionally, a sub-section of tau KO brains (n = 4) were self-blocked with non-radioactive MPC-6827 (10 µM) 1 h prior to radiotracer treatment. The slides were air-dried and ~ 0.5 MBq of [^11C]MPC-6827 in PBS was added to each slide and incubated for 30 min. The slides were then washed with PBS (3×) and water (1×) at 4 °C and quickly air-dried. Slides containing the brain tissues were exposed to radioluminographic imaging cassette BAS IP SR 2025 (GE Healthcare) for 12 h at − 20 °C and scanned with a GE Amersham Typhoon scanner (25 µm pixel size). Autoradiographs were analyzed using ImageQuant TL 8.2 and ROI were manually drawn (see Additional file 1: 3), and specific binding in each ROI was calculated and expressed as photo-stimulated luminescence signals per square millimeter (PSL/mm^2).

β-tubulin = system: β-tubulin; set-up: method as in PMID 17575155; details: high-affinity, selective β-tubulin binding MT agent; cited from earlier work
[5] = Post-PET ex vivo biodistribution of [11C]MPC-6827 in tau KO and WT mice
Protocol: Post-PET radiotracer tissue biodistribution studies were performed with [^11C]MPC-6827 in the KO and WT mice (n = 4/group). After dynamic brain imaging from 0 to 60 min, mice were euthanized, and samples of brain, blood, heart, lung, liver, spleen, pancreas, kidney, and muscle were harvested, weighed, and γ-counted using a Wallac Gamma Counter (PerkinElmer) with a standard dilution of the injectate. […]

[6] = [11C]MPC-6827 microPET/CT brain imaging in tau KO and WT mice; type: in vivo
Protocol: Small animal microPET/CT imaging was performed in anesthetized tau-KO and WT mice (n = 8/group) at 6 months of age. All mice received a bolus injection of [^11C]MPC-6827 (18.1 ± 0.01 MBq) via the tail vein. For the microPET/CT scans, the head/brain area was centered in the field of view, and the list-mode data from the emission scans were reframed into a 0-60 min dynamic binning sequence. Time-activity curves (TACs) were obtained, and radioactive uptake was expressed as standardized uptake values (SUVs) using the PMOD analysis software. Regions of interest (ROIs) were drawn for the whole brain and commonly AD-affected regions including cortex, striatum, hippocampus, and cerebellum, using Π-pmod Atlas software.

[7] = 1.0 µM agent for 3 h, then tracer 30 min at RT, vs untreated cells

SMILES: C/C1=C/C[C@@H](/C(C)=C/c2csc(C)n2)OC(=O)C[C@H](O)C(C)(C)C(=O)[C@H](C)[C@@H](O)[C@@H](C)CCC1 [EpoD, Epothilone d]
- lower [11C]MPC-6827 brain uptake (whole-brain SUVmax) with EpoD treatment compared to baseline [1]: ~ 23 (± 1) %
- decrease of [11C]MPC-6827 radioactivity in bound tubulin fractions [2]: ~ 62 (± 6) %
- decrease of [11C]MPC-6827 radioactivity in free tubulin fractions [2]: ~ 44 (± 1) %
- decrease of [11C]MPC-6827 radioactive uptake (SH-SY5Y cells; [7]): ~ 44 (± 2) %

SMILES: COc1ccc(N(C)c2nc(C)nc3ccccc23)cc1 [MPC-6827, MPC-6827 hydrochloride]
- brain-to-plasma ratios [3]: 14–30 times
- lower radiotracer uptake on blocking compared to untreated tau KO samples ([4]; non-radioactive MPC-6827 10 µM 1 h prior to radiotracer, whole brain, cortex, hippocampus, mid-brain regions of tau KO sections): 63–70%
- IC50 (β-tubulin): 1.5 nM
- lower [11C]MPC-6827 radioactive uptake in self-blocking assay (SH-SY5Y cells; non-radioactive MPC-6827 1.0 µM 60 min before tracer, 30 min incubation): ~ 70 (± 1) %

SMILES: Cc1nc(N(C)c2ccc(O[11CH3])cc2)c2ccccc2n1 [[^11C]MPC-6827]
- higher radioactivity in tau KO brains compared to age-matched controls, cortex ([4]; autoradiography in vitro, cortex): ~ 38[± 2] %
- higher radioactivity in tau KO brains compared to age-matched controls, hippocampus ([4]; autoradiography in vitro, hippocampus): ~ 33[± 3] %
- higher radioactivity in tau KO brains compared to age-matched controls, midbrain regions ([4]; autoradiography in vitro, midbrain regions): 30[± 3] %
- higher radioactivity in tau KO brains compared to age-matched controls, whole brain ([4]; autoradiography in vitro, whole brain): ~ 46[± 4] %
- increased radioactivity in destabilized/free tubulin fractions compared to bound fractions ([2]; tracer 30 min at RT): > 90 (± 4) %
- brain uptake ([5]; WT controls, brain): 1.03 ± 0.29 %ID/g
- higher brain uptake in tau KO mice compared to WT controls ([5]; brain): ~ 41%
- uptake in cortical regions ([5]; controls (WT), cortical regions): 0.69 ± 0.07 %ID/g
- uptake in cortical regions of tau KO brains higher than in controls ([5]; cortical regions): 37%
- brain uptake ([5]; tau KO mice, brain): 1.76 ± 0.31 %ID/g
- uptake in cortical regions ([5]; tau KO mice, cortical regions): 1.11 ± 0.03 %ID/g
- whole-brain SUVmax ([6]; WT mice, 0-60 min microPET/CT, IV): 1.74
- time of peak brain radioactivity (TAC) ([6]; both genotypes (tau KO and WT)): around 4 min
- whole-brain SUVmax ([6]; tau KO mice, 0-60 min microPET/CT, IV): 2.33
- whole-brain SUVmax in tau KO higher than in WT controls ([6]; tau KO vs WT mice, 0-60 min microPET/CT, IV): 33 (± 2) %

SMILES: COc1cc2cc(c1Cl)N(C)C(=O)C[C@H](OC(=O)[C@H](C)N(C)C(=O)CCS)[C@]1(C)O[C@H]1[C@H](C)[C@@H]1C[C@@](O)(NC(=O)O1)[C@H](OC)/C=C/C=C(\C)C2 [mertasine]
- increase of [11C]MPC-6827 radioactivity in bound fractions [2]: ~ 66 (± 2) %
- increase of [11C]MPC-6827 radioactivity in free tubulin fractions [2]: ~ 39 (± 3) %
- increase of [11C]MPC-6827 radioactive uptake (SH-SY5Y cells; [7]): 63 (± 2) %

SMILES: CC(=O)O[C@H]1C(=O)[C@@]2(C)[C@H]([C@H](OC(=O)c3ccccc3)[C@]3(O)C[C@H](OC(=O)[C@H](O)[C@@H](NC(=O)c4ccccc4)c4ccccc4)C(C)=C1C3(C)C)[C@]1(OC(C)=O)CO[C@@H]1C[C@@H]2O [paclitaxel]
- decrease of [11C]MPC-6827 radioactivity in bound tubulin fractions [2]: ~ 60 (± 2) %
- decrease of [11C]MPC-6827 radioactivity in free tubulin fractions [2]: ~ 36.8 (± 3) %

SMILES: CC[C@]1(O)C[C@@H]2CN(CCc3c([nH]c4ccccc34)[C@@](C(=O)OC)(c3cc4c(cc3OC)N(C)[C@H]3[C@@](O)(C(=O)OC)[C@H](OC(C)=O)[C@]5(CC)C=CCN6CC[C@]43[C@@H]65)C2)C1 [vinblastine]
- increase of [11C]MPC-6827 radioactivity in bound fractions [2]: 84 (± 4) %
- increase of [11C]MPC-6827 radioactivity in free tubulin fractions [2]: ~ 43 (± 1) %
- increase of [11C]MPC-6827 radioactive uptake (SH-SY5Y cells; [7]): ~ 78 (± 2) %
